Drawing on patent US8247431B2, “Heterocyclic hydrazide compound and pesticidal use of the same” (Sumitomo Chemical Company, Limited, priority 2007, dated 2012), this text covers pest or weed control for four compounds.

Holding throughout (type): in vivo
The test system of assay [1] is cotton aphids (Aphis gossypii). The experiment in a line: Test Example 2: spray on cucumber infested with cotton aphids. To be noted: topical, 144 h, 500 ppm active ingredient, 20 ml/cup spray on cucumber, about 30 aphids, counted six days after spraying, read-out: controlling value. As to the method: Then, it will be shown by Test Examples that the present compound is effective in controlling harmful arthropods. In the Test Example, controlling values were calculated by the following equation: Controlling value(%)={1−(Cb×Tai)/(Cai×Tb)}×100 wherein Cb: the number of worms in a non-treated section before treatment Cai: the number of worms in a non-treated section on observation Tb: the number of worms in a treated-section before treatment Tai: the number of worms in a treated-section on observation. Preparations of the test compounds obtained in Formulation Example 5 were diluted with water so that the active ingredient concentration became 500 ppm to prepare test spray solutions. At the same time, cucumber was planted in a polyethylene cup, and was grown until the first true leaf was developed. About 30 cotton aphids were put on the cucumber. One day after, the test spray solution as described above was sprayed in an amount of 20 ml/cup on the cucumber. Six days after spraying, the number of cotton aphids (Aphis gossypii) was counted, and a controlling value was calculated by the above equation.

The test system of assay [2] is diamondback moths (Plutella xylostella). The experiment in a line: Test Example 1: spray on cabbage, third-instar larvae of diamondback moths. The note with it: Plutella xylostella, 120 h; 500 ppm active ingredient, 20 ml/cup spray on cabbage, 10 third-instar larvae, counted after 5 days; read-out: controlling value. On the procedure: Then, it will be shown by Test Examples that the present compound is effective in controlling harmful arthropods. In the Test Example, controlling values were calculated by the following equation: Controlling value(%)={1−(Cb×Tai)/(Cai×Tb)}×100 wherein Cb: the number of worms in a non-treated section before treatment Cai: the number of worms in a non-treated section on observation Tb: the number of worms in a treated-section before treatment Tai: the number of worms in a treated-section on observation. Preparations of the test compounds obtained in Formulation Example 5 were diluted with water so that the active ingredient concentration became 500 ppm, to prepare test spray solutions. At the same time, cabbage was planted in a polyethylene cup, and grown until the third true leaf or the fourth true leaf was developed. The test spray solution as described above was sprayed in an amount of 20 ml/cup on the cabbage. After the spray solution on the cabbage was dried, 10 third-instar larvae of diamondback moths (Plutella xylostella) were put on the cabbage. After 5 days, the number of diamondback moths was counted, and the controlling value was calculated by the above equation. Furthermore, preparations of the test compound (7) and a comparative compound of the formula [drawing 523] obtained in a formulation according to Formulation Example 5 were diluted with water so that the active ingredient concentration became 0.2 ppm, to prepare test spray solution. At the same time, cabbage was planted in a polyethylene cup, and grown until the third true leaf or the fourth true leaf was developed. The test spray solution as described above was sprayed in an amount of 20 ml/cup on the cabbage. After the spray solution on the cabbage was dried, 10 third-instar larvae of diamondback moths (Plutella xylostella) were put on the cabbage. After 5 days, the number of diamondback moths was counted, and the controlling value was calculated by the above equation.

The test system of assay [3] is Spodoptera litura. Description: Test Example 3: spray on cabbage, fourth-instar larvae of Spodoptera litura. To be noted: 120 h, 500 ppm active ingredient, 20 ml/cup spray on cabbage, 10 fourth-instar larvae, counted after 5 days, read-out: controlling value. On the procedure:
Then, it will be shown by Test Examples that the present compound is effective in controlling harmful arthropods. In the Test Example, controlling values were calculated by the following equation: Controlling value(%)={1−(Cb×Tai)/(Cai×Tb)}×100 wherein Cb: the number of worms in a non-treated section before treatment Cai: the number of worms in a non-treated section on observation Tb: the number of worms in a treated-section before treatment Tai: the number of worms in a treated-section on observation. Preparations of the test compounds obtained in Formulation Example 5 were diluted with water so that the active ingredient concentration became 500 ppm to prepare test spray solutions. At the same time, cabbage was planted in a polyethylene cup, and grown until the third true leaf or the fourth true leaf was developed. The test spray solution as described above was sprayed in an amount of 20 ml/cup on the cabbage. After the spray solution sprayed on the cabbage was dried, 10 fourth-instar larvae of Spodoptera litura were put on the cabbage. After 5 days, the number of Spodoptera litura surviving on the cabbage leaves was counted, and a controlling value was calculated by the above equation.

For assay [4], the system named is Adoxophyes orana fasciata. Description: Test Example 4: spray on apple seedling, first-instar larvae of Adoxophyes orana fasciata. To be noted: 168 h, 500 ppm active ingredient, 20 ml spray on apple seedling, about 30 first-instar larvae, counted seven days after spraying, read-out: controlling value. On the procedure:
Then, it will be shown by Test Examples that the present compound is effective in controlling harmful arthropods. In the Test Example, controlling values were calculated by the following equation: Controlling value(%)={1−(Cb×Tai)/(Cai×Tb)}×100 wherein Cb: the number of worms in a non-treated section before treatment Cai: the number of worms in a non-treated section on observation Tb: the number of worms in a treated-section before treatment Tai: the number of worms in a treated-section on observation. Preparations of the test compounds obtained in Formulation Example 5 were diluted with water so that the active ingredient concentration became 500 ppm to prepare test spray solutions. At the same time, 20 ml of the test spray solution as described above was sprayed to an apple seedling (28 day-old seeding, tree height: about 15 cm) planted in a plastic cup. The apple seedling was air-dried to such an extent that the spray solution sprayed on the apple seedling was dried. About 30 first-instar larvae of Adoxophyes orana fasciata were released. Seven days after spraying, the number of worms surviving on the apple seedling was counted, and a controlling value was calculated by the above equation.

On to `COC(=O)NNC(=O)c1nc(Cl)cc(Br)c1NC(=O)c1cc(Br)nn1-c1ncccc1Cl` [Compound 15, N′-(4-bromo-3-{[5-bromo-2-(3-chloro-pyridin-2-yl)-2H-pyrazole-3-carbonyl]-amino}-6-chloro-pyridine-2-carbonyl)-hydrazine carboxylic acid methyl ester], for which the pest or weed control at 500 ppm is not below 90% in assay [1], not below 90% in assay [2], not below 80% in assay [3] and not below 90% in assay [4].
`COC(=O)NNC(=O)c1nc(Cl)cc(Cl)c1NC(=O)c1cc(Br)nn1-c1ncccc1Cl` [Compound 14, N′-(3-{[5-bromo-2-(3-chloro-pyridin-2-yl)-2H-pyrazole-3-carbonyl]-amino}-4,6-dichloro-pyridine-2-carbonyl)-hydrazinecarboxylic acid methyl ester]: the pest or weed control at 500 ppm is not below 90% in assay [1], not below 90% in assay [2], not below 80% in assay [3] and not below 90% in assay [4].
As for `COC(=O)N(C)NC(=O)c1nc(Cl)cc(C)c1NC(=O)c1cc(Br)nn1-c1ncccc1Cl` [Compound 8, N′-(3-{[5-bromo-2-(3-chloro-pyridin-2-yl)-2H-pyrazole-3-carbonyl]-amino}-6-chloro-4-methyl-pyridine-2-carbonyl)-N-methyl-hydrazinecarboxylic acid methyl ester], the pest or weed control at 500 ppm is not below 90% in assay [1], not below 90% in assay [2], not below 80% in assay [3] and not below 90% in assay [4].
As for `COC(=O)NNC(=O)c1cc(Br)nc(Br)c1NC(=O)c1cc(Br)nn1-c1ncccc1Cl` [Compound 5, N′-(2,6-dibromo-3-{[5-bromo-2-(3-chloro-pyridin-2-yl)-2H-pyrazole-3-carbonyl]-amino}-pyridine-4-carbonyl)-hydrazinecarboxylic acid methyl ester], the pest or weed control at 500 ppm was not below 90% in assay [1], not below 90% in assay [2], not below 80% in assay [3] and not below 90% in assay [4].
